Results published in PubChem BioAssay AID690 (Sanford-Burnham Center for Chemical Genomics, 2007).
pIC50: −log10 of the molar value. Active and inactive are the calls of the source. No rule for the calls is given here.

Biological target: Alkaline phosphatase, placental type (Homo sapiens) (UniProt P05187)
Assay: PLAP enzyme inhibitors, biochemical, luminescence, HTS (AID 690)
Details: purified PLAP, luminescent substrate

Chain of Alkaline phosphatase, placental type (Homo sapiens) (P05187 whole entry, looked up): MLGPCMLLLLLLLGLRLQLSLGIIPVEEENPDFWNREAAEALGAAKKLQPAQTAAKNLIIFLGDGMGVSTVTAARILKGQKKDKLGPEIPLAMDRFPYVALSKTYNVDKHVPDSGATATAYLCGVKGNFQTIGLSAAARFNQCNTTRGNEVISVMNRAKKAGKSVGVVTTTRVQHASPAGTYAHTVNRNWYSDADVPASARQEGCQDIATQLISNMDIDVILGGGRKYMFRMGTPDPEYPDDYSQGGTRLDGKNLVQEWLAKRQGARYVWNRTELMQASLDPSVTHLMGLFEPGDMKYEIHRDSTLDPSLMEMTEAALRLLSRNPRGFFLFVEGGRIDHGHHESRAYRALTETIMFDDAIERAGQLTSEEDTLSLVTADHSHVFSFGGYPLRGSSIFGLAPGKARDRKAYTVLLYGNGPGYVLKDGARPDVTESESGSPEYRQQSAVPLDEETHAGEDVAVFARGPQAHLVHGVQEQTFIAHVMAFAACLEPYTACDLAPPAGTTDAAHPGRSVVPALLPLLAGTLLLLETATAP

Row | Compound | pIC50 | IC50
1 | O/N=C/c1cc(Cl)ccc1OCc1cccc2ccccc12 | 4.37 | –
2 | COc1cc(/C=C2\N=C3CCCCCN3C2=O)ccc1O | 4.59 | –
3 | Cc1ccc(C)c(NC(=S)NC(NC(=O)Cc2cccc3ccccc23)C(Cl)(Cl)Cl)c1 (stereo not given) | 4.56 | –
4 | CN(C)c1ccc(/C=C/c2cc[n+](C)cc2)cc1 | 4.76 | –
5 | CC(=O)Oc1cc2oc(=O)cc(C)c2cc1OC(C)=O | 5.20 | –
6 | CN1C(=O)/C(=C2/C=Cc3ccccc3N2CCCS(=O)(=O)O)SC1=S | 4.82 | –
7 | Cc1cc(C)nc(NN2C(=O)/C(=C/c3ccc(O)cc3)SC2=S)n1 | 4.73 | –
8 | Clc1ccc(CSc2nnnn2-c2ccc3c(c2)OCO3)c(Cl)c1 | 4.13 | –
9 | CCN1/C(=C/c2ccc3cccc(C)c3[n+]2CC)Sc2ccccc21 | 4.92 | –
10 | O=C1C2C3C=CC(C3)C2C(=O)N1c1n[nH]c(-c2ccccc2)n1 (stereo not given) | 5.12 | –
11 | N#Cc1c(SCC(=O)OCc2ccccc2)nsc1SCC(=O)OCc1ccccc1 | 4.20 | –
12 | CN1C(=O)/C(=C\c2ccc(N3CCCCC3)o2)C(=O)NC1=S | 5.00 | –
13 | Oc1ccc(C2=Nn3c(nnc3-c3ccco3)SC2)cc1O | 4.67 | –
14 | CCN1/C(=C\C=C\C2=[N+](CC)c3ccccc3C2(C)C)C(C)(C)c2ccccc21 | 4.66 | –
15 | Cc1cc([N+](=O)[O-])ccc1NCc1ccc2ccccc2c1 | 4.12 | –
16 | CCOC(=O)c1c(-n2c(C)cc(C=C3C(=O)NC(=S)NC3=O)c2C)sc2c1CCCC2 | 4.19 | –
17 | CN1c2ccccc2C(C)(C)[C@]12C=Cc1cc(O)ccc1O2 | 4.36 | –
18 | COC(=O)C(N)Cc1ccc(O)c(O)c1 (stereo not given) | 4.99 | –
19 | CN1/C(=C\C=C2\N=C(c3ccc(F)cc3)OC2=O)C(C)(C)c2ccccc21 | 4.45 | –
20 | O=C1Nc2ccc(Br)cc2/C1=N/N=C/C1=C(N2CCOCC2)C(=C\c2ccccc2)/CC1 | 4.34 | –
21 | O=C(Nc1cc(N2CCOCC2)ncn1)NC1(C(F)(F)F)Oc2ccc(Cl)cc2O1 (stereo not given) | 4.90 | –
22 | CCCCOc1ccc(CSC(=N)N)cc1[N+](=O)[O-] | 4.11 | –
23 | CN(C)c1ccc(/C=C/C(=O)c2cccc(Br)c2)cc1 | 4.45 | –
24 | O=C1NC(=S)N/C1=C/c1cc([N+](=O)[O-])ccc1O | – | inactive
25 | COc1ccc(-c2nnc(-c3ccc(Br)o3)o2)cc1OC | 4.99 | –
26 | CCC1CCc2c(c3ccccc3[nH]c2=O)O1 (stereo not given) | 4.85 | –
27 | Clc1ccc(/C=C/c2nc3ccccc3[nH]2)c(Cl)c1 | 5.20 | –

Row | Compound | pIC50 | IC50
28 | O=c1sc2ccccc2n1COc1ccc(Cl)cc1 | 4.00 | –
29 | O=c1oc2cc(Cl)ccc2n1CSc1nc2ccccc2s1 | 4.07 | –
30 | O=P(O)(O)c1ccccc1OCc1ccccc1 | 5.07 | –
31 | O=C(CCCn1c(SCC(=O)c2ccc(O)c(O)c2)nc2ccccc2c1=O)NCC1CCCO1 (stereo not given) | 5.46 | –
32 | CCCc1[nH]nc2c1C(c1ccc(O)c(OC)c1)C(C#N)=C(N)O2 (stereo not given) | 4.93 | –
33 | CC1CCCC/C1=N/Nc1ccc([N+](=O)[O-])cc1[N+](=O)[O-] (stereo not given) | 5.14 | –
34 | COCc1[nH]nc2c1C(c1cc(OC)c(O)c(OC)c1)C(C#N)=C(N)O2 (stereo not given) | 4.64 | –
35 | CN(C)CCNc1ncnc2ccccc12 | 4.15 | –
36 | COC(=O)C1=C(O)/C(=C\c2ccc(O)c(OC)c2)N=C1C | 4.54 | –
37 | CC(C)N=c1scc(-c2ccco2)n1/N=C/c1ccc(O)c(O)c1 | 5.30 | –
38 | O=C1C2C3C=CC(C3)C2C(=O)N1c1n[nH]c(-c2cccnc2)n1 (stereo not given) | 4.53 | –
39 | C/C(=N\Nc1ccc([N+](=O)[O-])cc1)c1cccc(N)c1 | 4.28 | –
40 | O=C(NC1(C(F)(F)F)Oc2ccc(Cl)cc2O1)N1CCC2(CC1)OCCO2 (stereo not given) | 5.31 | –
41 | COC(=O)c1ccc2c(c1)C(C)(C)C(/C=C/c1ccc(O)cc1)=[N+]2C | 4.97 | –
42 | c1ccc(Nc2cccc(Nc3ccccc3)n2)cc1 | 4.18 | –
43 | COc1cccc(-c2nnc3n2N=C(c2cccc(Br)c2)CS3)c1 | 4.12 | –
44 | Cc1nn(-c2ccccc2)c(C)c1/C=N/NC(=O)c1cc(-c2ccccc2)n[nH]1 | 5.13 | –
45 | COc1cc(/C=C(/C(=O)c2cccs2)c2nc3ccccc3[nH]2)cc(OC)c1O | 4.69 | –
46 | Cc1[nH]c2ccccc2c1/C=C/c1cc[n+](C)cc1 | 4.54 | –
47 | CN(C)c1ccc(/C=C/C=C2/SC(=S)N(c3ccccc3)C2=O)cc1 | 5.01 | –
48 | COCCNC(=O)NC1(C(F)(F)F)Oc2ccc(Cl)cc2O1 (stereo not given) | 4.91 | –
49 | O=C(CSc1n[nH]c(-c2ccccc2)n1)c1ccc(O)c(O)c1 | 4.95 | –
50 | c1ccc(-n2ncc3c2ncn2cnnc32)cc1 | 5.68 | –
51 | CCn1c(CSc2nc3ccccc3s2)nnc1SCC(=O)c1ccc(O)c(O)c1 | 5.82 | –
52 | Cc1cc2nc(C3CCN(Cc4nnnn4Cc4cccs4)CC3)[nH]c2cc1C | 5.12 | –
53 | CC1=NN(Cc2ccccc2)C(=O)/C1=C\c1ccc(N(C)C)cc1 | 4.74 | –
54 | COc1cccc(OCCNc2cc(Cl)ccc2[N+](=O)[O-])c1 | 4.22 | –

Row | Compound | pIC50 | IC50
55 | CCn1c(SCC(=O)c2ccc(O)c(O)c2)nnc1-c1ccccc1 | 5.37 | –
56 | COC(=O)c1ccc2c(c1)C(C)(C)C(/C=C/c1ccccc1O)=[N+]2C | 4.82 | –
57 | C=CCN1C(=O)NC2(O)C(=O)c3ccccc3C12O (stereo not given) | 4.80 | –
58 | CCCCOC(=O)C(C)Nc1n[nH]c(=S)[nH]c1=O (stereo not given) | 4.36 | –
59 | CCc1ccc(NSc2ccccc2[N+](=O)[O-])cc1 | 4.53 | –
60 | CC1(C)Cc2c(sc3nc4n(c(=N)c23)CCCCC4)CO1 | 5.73 | –
61 | COc1cc(/C=C2/CCC/C(=C\c3cc(O)c(OC)c(Cl)c3)C2=O)cc(Cl)c1O | 4.55 | –
62 | O=C1C2CC=CCC2C(=O)N1c1n[nH]c(-c2ccccc2)n1 (stereo not given) | 5.06 | –
63 | CCOc1ccccc1OCc1nn2c(-c3ccc(C)cc3)nnc2s1 | 4.25 | –
64 | Oc1ccc(CC2CC3CCN2CC3)cc1O (stereo not given) | 4.44 | –
65 | COc1ccc(-n2nnnc2SCC(=O)c2ccc(O)c(O)c2)cc1 | 5.95 | –
66 | CCn1c(SCC(=O)c2ccc(O)c(O)c2)nnc1-c1ccccc1OC | 5.36 | –
67 | CCN1/C(=C/c2ccc3ccccc3[n+]2CC)C=Cc2ccccc21 | 4.97 | –
68 | COC(=O)c1cn[nH]c1NC(=S)Nc1ccccc1C | 4.71 | –
69 | CCOc1cc(/C=C(/C#N)C(=O)Nc2ccc(O)cc2)cc(Br)c1O | 4.31 | –
70 | O=C(C[n+]1ccc(C(=O)N/N=C/c2ccc(Br)cc2)cc1)c1ccccc1 | 4.46 | –
71 | O=C(CSc1nc2ccccc2c(=O)[nH]1)c1ccc(O)c(O)c1 | 5.02 | –
72 | CNc1nnc(-c2cc3ccccc3oc2=O)s1 | 5.55 | –
73 | Clc1ccc(CSCCc2ccncc2)cc1 | 5.24 | –
74 | O=C(NCc1cccnc1)NC1(C(F)(F)F)Oc2ccc(Cl)cc2O1 (stereo not given) | 4.91 | –
75 | CSc1cccc(NC(=O)/C=C/c2ccccc2)c1 | 4.12 | –
76 | CCOC(=O)SC1=N/C(=C\c2ccc(N(C)C)cc2)C(=O)S1 | 4.32 | –
77 | CC(C)C1N=C2c3ccccc3N=C(SCC(=O)c3ccc(O)c(O)c3)N2C1=O (stereo not given) | 5.51 | –
78 | c1ccc(CSCCc2ccncc2)cc1 | 5.70 | –
79 | C=CCn1c(SCC(=O)c2ccc(O)c(O)c2)nnc1-c1ccccc1OC | 5.81 | –
80 | N#C/C(=C\c1ccc(O)c(O)c1)S(=O)(=O)c1ccccc1 | 5.39 | –
